Each block holds one molecule with its values, some of them ahead of it. The source made the active and inactive calls. The calls are words filed in the database; no cut-off is given here.
What was measured:
HCT-116 = test: Antiproliferative activity against human HCT-116 cells assessed as inhibition of cell growth incubated for 72 hrs by MTT assay; type: functional, cell-based; details: HCT-116, 72 h
NCI-H460 = test: Antiproliferative activity against human NCI-H460 cells assessed as inhibition of cell growth incubated for 72 hrs by MTT assay; type: functional, cell-based; details: NCI-H460, 72 h
MCF7 = test: Antiproliferative activity against human MCF7 cells assessed as inhibition of cell growth incubated for 72 hrs by MTT assay; type: functional, cell-based; details: MCF7, 72 h
HEK293 = test: Cytotoxicity against human HEK293 cells assessed as inhibition of cell growth incubated for 72 hrs by MTT assay; type: cell-based; details: HEK293, 72 h
Calf thymus DNA [1] = test: Binding affinity to calf thymus DNA assessed as binding constant in sodium cacodylate buffer at pH 7 by fluorescence spectroscopy; details: Bos taurus
Calf thymus DNA [2] = test: Binding affinity to calf thymus DNA assessed as ratio of bound compound to polynucleotide phosphate in sodium cacodylate buffer at pH 7 by fluorescence spectroscopy based Scatchard analysis; details: Bos taurus
Calf thymus DNA [3] = test: Binding affinity to calf thymus DNA assessed as ratio of fluorescence intensity of compound-polynucleotide complex to fluorescence intensity of compound in sodium cacodylate buffer at pH 7 by fluorescence spectroscopy based Scatchard method; details: Bos taurus
[4] = tested on: Poly(dA-dU)oligonucleotide; test: Binding affinity to polyA-polyU RNA (unknown origin) assessed as binding constant in sodium cacodylate buffer at pH 7 by fluorescence spectroscopy; type: nucleic-acid assay
[5] = tested on: Poly(dA-dU)oligonucleotide; test: Binding affinity to polyA-polyU RNA (unknown origin) assessed as ratio of bound compound to polynucleotide phosphate in sodium cacodylate buffer at pH 7 by fluorescence spectroscopy based Scatchard method; type: nucleic-acid assay
[6] = tested on: Poly(dA-dU)oligonucleotide; test: Binding affinity to polyA-polyU RNA (unknown origin) assessed as ratio of fluorescence intensity of compound-polynucleotide complex to fluorescence intensity of compound in sodium cacodylate buffer at pH 7 by fluorescence spectroscopy based Scatchard method; type: nucleic-acid assay
[7] = tested on: Poly(dA-dT)oligonucleotide; test: Binding affinity to poly(dAdT)2 DNA (unknown origin) assessed as binding constant in sodium cacodylate buffer at pH 7 by fluorescence spectroscopy; type: nucleic-acid assay
[8] = tested on: Poly(dA-dT)oligonucleotide; test: Binding affinity to poly(dAdT)2 DNA (unknown origin) assessed as ratio of bound compound to polynucleotide phosphate in sodium cacodylate buffer at pH 7 by fluorescence spectroscopy based Scatchard method; type: nucleic-acid assay
[9] = tested on: Poly(dA-dT)oligonucleotide; test: Binding affinity to poly(dAdT)2 DNA (unknown origin) assessed as ratio of fluorescence intensity of compound-polynucleotide complex to fluorescence intensity of compound in sodium cacodylate buffer at pH 7 by fluorescence spectroscopy based Scatchard method; type: nucleic-acid assay
[10] = tested on: Poly(dG-dC)oligonucleotide; test: Binding affinity to poly(dGdC)2 DNA (unknown origin) assessed as binding constant in sodium cacodylate buffer at pH 7 by fluorescence spectroscopy; type: nucleic-acid assay
[11] = tested on: Poly(dG-dC)oligonucleotide; test: Binding affinity to poly(dGdC)2 DNA (unknown origin) assessed as ratio of bound compound to polynucleotide phosphate in sodium cacodylate buffer at pH 7 by fluorescence spectroscopy based Scatchard method; type: nucleic-acid assay
[12] = tested on: Poly(dG-dC)oligonucleotide; test: Binding affinity to poly(dGdC)2 DNA (unknown origin) assessed as ratio of fluorescence intensity of compound-polynucleotide complex to fluorescence intensity of compound in sodium cacodylate buffer at pH 7 by fluorescence spectroscopy based Scatchard method; type: nucleic-acid assay
Calf thymus DNA [13] = test: Binding affinity to calf thymus DNA assessed as change in melting temperature in sodium cacodylate buffer at pH 7 at compound:polynucleotide concentration ratio of 0.3 by UV/Vis spectrophotometric analysis; type: nucleic-acid assay; details: Bos taurus
[14] = tested on: Poly(dA-dU)oligonucleotide; test: Binding affinity to polyA-polyU RNA (unknown origin) assessed as change in melting temperature in sodium cacodylate buffer at pH 7 at compound:polynucleotide concentration ratio of 0.3 by UV/vis spectrophotometric analysis; type: nucleic-acid assay
[15] = tested on: Poly(dA-dT)oligonucleotide; test: Binding affinity to poly(dAdT)2 DNA (unknown origin) assessed as change in melting temperature in sodium cacodylate buffer at pH 7 at compound:polynucleotide concentration ratio of 0.3 by UV/Vis spectrophotometric analysis; type: nucleic-acid assay
Quadruplex DNA [16] = test: Binding affinity to human Tel22 G quadruplex DNA assessed as binding constant in sodium cacodylate buffer at pH 7 at binding stoichiometry ratio of 1:1 by fluorescence spectroscopy; type: nucleic-acid assay
Quadruplex DNA [17] = test: Binding affinity to human Tel22 G quadruplex DNA assessed as ratio of fluorescence intensity of compound-polynucleotide complex to fluorescence intensity of compound in sodium cacodylate buffer at pH 7 at binding stoichiometry ratio of 1:1 by fluorescence spectroscopy; type: nucleic-acid assay
Quadruplex DNA [18] = test: Binding affinity to human Tel22 G quadruplex DNA assessed as change in melting temperature in sodium cacodylate buffer at pH 7 by UV/Vis spectrophotometric analysis; type: nucleic-acid assay
[19] = tested on: Poly(dA-dT)oligonucleotide; test: Binding affinity to poly(dAdT)2 DNA (unknown origin) in sodium cacodylate buffer at pH 7 by CD spectroscopy; type: nucleic-acid assay
[20] = tested on: Poly(dG-dC)oligonucleotide; test: Binding affinity to poly(dGdC)2 DNA (unknown origin) in sodium cacodylate buffer at pH 7 by CD spectroscopy; type: nucleic-acid assay
[21] = tested on: Poly(dA-dU)oligonucleotide; test: Binding affinity to polyA-polyU RNA (unknown origin) in sodium cacodylate buffer at pH 7 by CD spectroscopy; type: nucleic-acid assay
Quadruplex DNA [22] = test: Binding affinity to human Tel22 G quadruplex DNA assessed as ratio of fluorescence intensity of compound-polynucleotide complex to fluorescence intensity of compound in sodium cacodylate buffer at pH 7 at binding stoichiometry ratio of 1:2 by fluorescence spectroscopy; type: nucleic-acid assay
Quadruplex DNA [23] = test: Binding affinity to human Tel22 G quadruplex DNA assessed as binding constant in sodium cacodylate buffer at pH 7 at binding stoichiometry ratio of 1:2 by fluorescence spectroscopy; type: nucleic-acid assay
Quadruplex DNA [24] = test: Binding affinity to human Tel22 G quadruplex DNA in sodium cacodylate buffer at pH 7 by CD spectroscopy; type: nucleic-acid assay

SMILES: N#Cc1c(N2CCCCC2)c2ccc(N3CCCCC3)cc2n2c1nc1ncccc12
IC50 (HCT-116): 1800 nM | IC50 (NCI-H460): 7000 nM | IC50 (MCF7): 3600 nM

SMILES: N#Cc1c(N2CCCCC2)c2ccccc2n2c1nc1ncccc12
IC50 (HCT-116): ≥ 100000 nM | IC50 (NCI-H460): ≥ 100000 nM | IC50 (MCF7): ≥ 100000 nM

SMILES: N#Cc1c(N2CCNCC2)c2ccc(N3CCNCC3)cc2n2c1nc1ncccc12
IC50 (HCT-116): ≥ 100000 nM | IC50 (NCI-H460): ≥ 100000 nM | IC50 (MCF7): ≥ 100000 nM | IC50 (HEK293): > 100000 nM | log Ks (Calf thymus DNA [1]): 6.4 | Ratio (Calf thymus DNA [2]): 0.1 | Ratio (Calf thymus DNA [3]): 0 | log Ks [4]: 6.5 | Ratio [5]: 0.1 | Ratio [6]: 1.8 | log Ks [7]: 6.8 | Ratio [8]: < 0.1 | Ratio [9]: 1.3 | log Ks [10]: 6.6 | Ratio [11]: 0.2 | Ratio [12]: 0 | ΔTm (Calf thymus DNA [13]): 6.6 °C | ΔTm [14]: 13.5 °C | ΔTm [15]: 11.1 °C | log Ks (Quadruplex DNA [16]): 5.33 | Ratio (Quadruplex DNA [17]): 0.62 | ΔTm (Quadruplex DNA [18]): 2.5 °C | Activity [19]: Active | Activity [20]: Active | Activity [21]: Active | Ratio (Quadruplex DNA [22]): 0.89 | log Ks (Quadruplex DNA [23]): 7.16

SMILES: N#Cc1c(N2CCNCC2)c2ccc(N3CCNCC3)cc2n2c1nc1cccnc12
IC50 (HCT-116): 400 nM | IC50 (NCI-H460): 700 nM | IC50 (MCF7): 400 nM | IC50 (HEK293): 200 nM | log Ks (Calf thymus DNA [1]): 6.3 | Ratio (Calf thymus DNA [2]): 0.3 | Ratio (Calf thymus DNA [3]): 0.1 | log Ks [4]: 6.6 | Ratio [5]: 0.1 | Ratio [6]: 2 | log Ks [7]: 6.8 | Ratio [8]: 0.2 | Ratio [9]: 1.5 | log Ks [10]: 6.8 | Ratio [11]: 0.3 | Ratio [12]: < 0.1 | ΔTm (Calf thymus DNA [13]): 7.5 °C | ΔTm [14]: 15 °C | ΔTm [15]: 14.3 °C | log Ks (Quadruplex DNA [16]): 5.04 | Ratio (Quadruplex DNA [17]): 0.77 | Activity [19]: Active | Activity [20]: Active | Activity [21]: Active | Ratio (Quadruplex DNA [22]): 0.81 | log Ks (Quadruplex DNA [23]): 6.85

SMILES: COc1cc([C@@H]2c3cc4c(cc3[C@@H](O[C@@H]3O[C@@H]5CO[C@@H](C)O[C@H]5[C@H](O)[C@H]3O)[C@H]3COC(=O)[C@H]23)OCO4)cc(OC)c1O [ETOPOSIDE]
IC50 (NCI-H460): 100 nM | IC50 (MCF7): 1000 nM

SMILES: N#Cc1c(N2CCCCC2)c2ccccc2n2c1nc1cccnc12
IC50 (HCT-116): 47000 nM | IC50 (NCI-H460): ≥ 100000 nM | IC50 (MCF7): 16000 nM

SMILES: CN(C)CCCNc1c(C#N)c2nc3cccnc3n2c2ccccc12
IC50 (HCT-116): 900 nM | IC50 (NCI-H460): 1400 nM | IC50 (MCF7): 2900 nM | IC50 (HEK293): 1800 nM

The next lines start with results.

IC50 (HCT-116): 3000 nM | IC50 (NCI-H460): 12000 nM | IC50 (MCF7): 3000 nM
SMILES: CC(C)CNc1ccc2cc(C#N)c3nc4ncccc4n3c2c1

IC50 (HCT-116): 800 nM | IC50 (NCI-H460): 2000 nM | IC50 (MCF7): 3200 nM
SMILES: CN(C)CCCNc1c(C#N)c2nc3ncccc3n2c2ccccc12
IC50 (HEK293): 2600 nM

IC50 (HCT-116): 14000 nM | IC50 (NCI-H460): 17500 nM | IC50 (MCF7): 14000 nM | log Ks [4]: 4.7 | Ratio [5]: 0.1 | Ratio [6]: 7.1 | log Ks [7]: 5.1 | Ratio [8]: < 0.1 | Ratio [9]: 8.3 | log Ks [10]: 5.5 | Ratio [11]: < 0.1 | Ratio [12]: 0.5 | ΔTm (Calf thymus DNA [13]): 0 °C | ΔTm [14]: 0.6 °C | ΔTm [15]: 0 °C | log Ks (Quadruplex DNA [16]): 4.69 | Ratio (Quadruplex DNA [17]): 4.75 | ΔTm (Quadruplex DNA [18]): 1.4 °C | Activity [19]: Active | Activity [20]: inactive | Activity (Quadruplex DNA [24]): Active
SMILES: CC(C)CNc1c(C#N)c2nc3ncccc3n2c2ccccc12
IC50 (HEK293): > 100000 nM | log Ks (Calf thymus DNA [1]): 4.5 | Ratio (Calf thymus DNA [2]): < 0.1 | Ratio (Calf thymus DNA [3]): 2.2

IC50 (HCT-116): 2300 nM | IC50 (NCI-H460): 11000 nM | IC50 (MCF7): 12000 nM | log Ks [4]: 5.5 | Ratio [5]: 0.4 | Ratio [6]: 0.8 | log Ks [7]: 6.4 | Ratio [8]: 0.4 | Ratio [9]: 0.8 | log Ks [10]: 5.6 | Ratio [11]: 0.4 | Ratio [12]: 0.4 | ΔTm (Calf thymus DNA [13]): 4.2 °C | ΔTm [14]: 4.5 °C | ΔTm [15]: 9.9 °C | log Ks (Quadruplex DNA [16]): 5.35 | Ratio (Quadruplex DNA [17]): 0.66 | ΔTm (Quadruplex DNA [18]): 2 °C | Activity [19]: Active | Activity [20]: Active | Activity [21]: Active | Activity (Quadruplex DNA [24]): Active
SMILES: CN(C)CCCNc1ccc2cc(C#N)c3nc4ncccc4n3c2c1
IC50 (HEK293): 4000 nM | log Ks (Calf thymus DNA [1]): 6 | Ratio (Calf thymus DNA [2]): 0.4 | Ratio (Calf thymus DNA [3]): 0.5

IC50 (HCT-116): 3700 nM | IC50 (NCI-H460): 7600 nM | IC50 (MCF7): 2000 nM | Activity (Quadruplex DNA [24]): Active
SMILES: CC(C)CNc1ccc2c(NCC(C)C)c(C#N)c3nc4ncccc4n3c2c1

IC50 (HCT-116): 500 nM | IC50 (NCI-H460): 300 nM | IC50 (MCF7): 400 nM
SMILES: CC(C)CNc1ccc2cc(C#N)c3nc4cccnc4n3c2c1
IC50 (HEK293): 500 nM

IC50 (HCT-116): ≥ 100000 nM | IC50 (NCI-H460): ≥ 100000 nM | IC50 (MCF7): ≥ 100000 nM
SMILES: N#Cc1cc2ccc(F)cc2n2c1nc1ncccc12
